Data set [1] is described as follows: Conditioned place preference (CPP) test for addictive/reinforcing effects. In kind it is in vivo, rats. From the text:
Apparatus for Conditioned Place Preference
A three compartment conditioned place preference (CPP) apparatus with an unbiased design was used to monitor drug-induced reinforcement. The apparatus was made up of transparent plastic Perspex. The compartments were separated by sliding guillotine doors.
The end (preference) compartments (26×26×26 cm each) provided distinct contexts, with one compartment having black horizontal stripes on side walls, the other compartment had vertical black stripes. […] The experiment was conducted in three distinct phases: pre-conditioning, conditioning and post-conditioning.
An animal introduced in the CPP apparatus from the middle compartment and guillotine doors were raised to open. The animal was allowed to explore the entire apparatus for 10 min. Time spent in each compartment was recorded.
(§1) This phase started one day after pre-conditioning phase, animals were randomly assigned to six groups, each containing six animals: (i) buspirone (0 mg/kg)-saline, (ii) buspirone (0 mg/kg)-[…], (iii) buspirone (1 mg/kg)-saline, (iv) buspirone (1 mg/kg)-apomorphine, (v) buspirone (2 mg/kg)-saline and (vi) buspirone (2 mg/kg)-apomorphine injected animals. Over next 12 days (day 1 to day 12) animals went through conditioning (one session per day) in which they were confined to either the horizontal or vertical stripe compartment by raising the respective guillotine door. On day 1, 3, 5, 7, 9 and 11 animals of all groups were injected with saline (1 ml/kg) and placed immediately in the assigned ‘Non-Drug paired’ compartment for 30 min. After which the animals were kept back in their home cages. On every other day, i.e. day 2, 4, 6, 8, 10, and 12 control and test animals were injected with saline, buspirone and/or apomorphine as assigned above. Immediately after injections, animals were placed in the ‘Drug paired’ compartment for 30 min. The animals picked from the drug paired compartment were placed back in their home cages.
The test was carried out on day 13, 24 hr post last conditioning session, in a drug free state. Each animal was tested only once. As in the pre-conditioning phase, the guillotine doors were removed and rat was given access to the entire apparatus for 10 min. Time spent in ‘Drug paired’ compartment was monitored.

The nature of data set [2]: Morris water maze test (learning acquisition, memory consolidation, retention). In kind it is in vivo, rats. As for the experimental part:
The Morris water maze test was conducted after repetitive apomorphine injections and post-conditioning. Water temperature was at room temperature, 21±1° C. The platform (10 cm×10 cm) was made of clear acrylic and was hidden 2 cm below the surface of water in a fixed location. Water was made opaque by adding milk to it.
During training phase, each rat was placed into the water facing the wall of the tank and allowed 120 sec to locate and climb onto the submerged platform. The rat was allowed to stay on the platform for 10 sec. […] After the training animals were tested three times.
Each rat was tested immediately after training. Learning acquisition was determined by recording the initial latency (IL; the time taken by each rat to relocate the hidden platform).
Rats were tested for memory consolidation 60 min post training. It was determined by recording the retention latency (RL; the time taken by each rat to locate the hidden platform 1 h after training). The cut off time for each session was 2 min.
Rats were tested for memory retention 24 hr post training session. Memory retention was determined by recording the retention latency (RL; the time taken by each rat to locate the hidden platform 24 hr post training). The cut off time for each session was 2 min.

Data set [3] can be described thus: Exploratory activity in novel environment of an open field. In kind it is in vivo. Particulars: rats. As for the experimental part:
Open field consisted of a square area (76×76 cm) with walls 42 cm high. Floor of the apparatus was divided by lines into 25 squares of equal size. Experiment was conducted in a quiet room under white light. Animals were tested 24 hr post 1st and 6th apomorphine injection. Numbers of squares crossed with all four paws and latency to move from the central square were scored for 5 min.

Data set [4] is described as follows: Motor behavior (cage crossings) and % psychosis like effects during conditioning phase. The data set is classed as in vivo. Particulars: rats. As for the experimental part: as §1
Motor behavior was also monitored during conditioning phase. Animals confined to a compartment were moving across the compartment. Activity scores were counted as number of cage crossings for 10 min starting 5 min post injection.

Where [5] appears, read: buspirone 1 mg/kg co-administered with apomorphine 1 mg/kg, rats.
Setting [6] is: buspirone co-injected animals (summary statement).
[7] abbreviates: buspirone 1 mg/kg with apomorphine, rats.
Setting [8] is: buspirone 1 mg/kg co-treated with apomorphine 1 mg/kg.

Molecules are shown by their SMILES.

For `O=C1CC2(CCCC2)CC(=O)N1CCCCN1CCN(c2ncccn2)CC1` [buspirone], in data set [1] (setting [5]), the “Effect on apomorphine-induced increases in post conditioning values of time spent in drug paired compartment” value is recorded as “significantly attenuates” and the “Reinforcement effects of apomorphine” value was “did not occur”. Further, the Addiction to apomorphine entry in data set [1] (setting [6]) was “reduced”. Further, in data set [2] (setting [7]), the “Effect on apomorphine-increased learning acquisition” value was “further potentiated”, the “Effect on apomorphine-increased memory consolidation” value was “further potentiated” and the “Effect on apomorphine-increased memory retention” value is recorded as “further potentiated”. In addition, the “Memory enhancing effects of apomorphine” value in data set [2] (setting [6]) is reported as “potentiated”. Moreover, the “Effect on apomorphine-increased exploratory activity” value in data set [3] (buspirone 1 mg/kg, after 6th apomorphine injection) is “attenuated”. In data set [4] (setting [8]), the “Effect on % psychosis like effects produced by apomorphine” value is recorded as “attenuated” and the “Effect on apomorphine-increased motor activities post repeated administration” value is “attenuated”.

As to `CN1CCc2cccc3c2[C@H]1Cc1ccc(O)c(O)c1-3` [apomorphine], the “Post-conditioning values of time spent in the drug paired compartment” value in data set [1] (apomorphine 1 mg/kg, repeated, vs pre-conditioning/saline, rats) is on record as “much higher”. The “% reinforcement” value in data set [1] (apomorphine 1 mg/kg, rats) was “increased”. Further, the “Memory consolidation (time taken to reach platform)” value in data set [2] (apomorphine vs saline treated animals, 60 min post training, rats) is listed as “increase”. In addition, the “Memory retention (time taken to reach platform)” value in data set [2] (apomorphine vs saline treated animals, 24 hr post training, rats) is reported as “increase”. The “Learning acquisition (time taken to reach platform)” value in data set [2] (apomorphine vs saline treated animals, tested immediately after training, rats) is recorded as “increase”. Moreover, the “Exploratory activity in open field” value in data set [3] (apomorphine alone) was “increased”. Also, the “Motor activities post repeated administration” value in data set [4] (apomorphine 1 mg/kg, repeated administration) is on record as “increased”. Also, in data set [4] (apomorphine 1 mg/kg, single administration), the “Motor activities post single administration” value is reported as “increase”. In addition, the “% psychosis like effects” value in data set [4] (apomorphine 1 mg/kg) is recorded as “produced”.
